# Laboratory results as given in BindingDB's records for patent US12065399 (Hoffmann-La Roche, 2024).
# Target: Metabotropic glutamate receptor 4 (Homo sapiens, UniProt Q14833)
# Assay: Intracellular Ca2+ Mobilization Assay (FLIPR)
# Method: A monoclonal HEK-293 cell line stably transfected with a cDNA encoding for the human mGlu4 receptor was generated. Cells were cultured according to standard protocols (Freshney, 2000) in Dulbecco's Modified Eagle Medium with high glucose supplemented with 1 mM glutamine, 10% (vol/vol) heat-inactivated bovine calf serum, penicillin/streptomycin, 50 μg/ml hygromycin and 15 μg/ml blasticidin (all cell culture reagents and antibiotics from Invitrogen, Basel, Switzerland).About 24 hrs before an experiment, 5×10^4 cells/well were seeded in poly-D-lysine coated, black/clear-bottomed 96-well plates. The cells were loaded with 2.5 μM Fluo-4AM in loading buffer (1×HBSS, 20 mM HEPES) for 1 hr at 37° C. and washed five times with loading buffer. The cells were transferred into a Functional Drug Screening System 7000 (Hamamatsu, Paris, France), and 11 half logarithmic serial dilutions of test compound at 37° C. were added and the cells were incubated for 10-30 min. with on-line recording of fluorescence. […]
# Sequence of Metabotropic glutamate receptor 4 (Q14833 whole entry): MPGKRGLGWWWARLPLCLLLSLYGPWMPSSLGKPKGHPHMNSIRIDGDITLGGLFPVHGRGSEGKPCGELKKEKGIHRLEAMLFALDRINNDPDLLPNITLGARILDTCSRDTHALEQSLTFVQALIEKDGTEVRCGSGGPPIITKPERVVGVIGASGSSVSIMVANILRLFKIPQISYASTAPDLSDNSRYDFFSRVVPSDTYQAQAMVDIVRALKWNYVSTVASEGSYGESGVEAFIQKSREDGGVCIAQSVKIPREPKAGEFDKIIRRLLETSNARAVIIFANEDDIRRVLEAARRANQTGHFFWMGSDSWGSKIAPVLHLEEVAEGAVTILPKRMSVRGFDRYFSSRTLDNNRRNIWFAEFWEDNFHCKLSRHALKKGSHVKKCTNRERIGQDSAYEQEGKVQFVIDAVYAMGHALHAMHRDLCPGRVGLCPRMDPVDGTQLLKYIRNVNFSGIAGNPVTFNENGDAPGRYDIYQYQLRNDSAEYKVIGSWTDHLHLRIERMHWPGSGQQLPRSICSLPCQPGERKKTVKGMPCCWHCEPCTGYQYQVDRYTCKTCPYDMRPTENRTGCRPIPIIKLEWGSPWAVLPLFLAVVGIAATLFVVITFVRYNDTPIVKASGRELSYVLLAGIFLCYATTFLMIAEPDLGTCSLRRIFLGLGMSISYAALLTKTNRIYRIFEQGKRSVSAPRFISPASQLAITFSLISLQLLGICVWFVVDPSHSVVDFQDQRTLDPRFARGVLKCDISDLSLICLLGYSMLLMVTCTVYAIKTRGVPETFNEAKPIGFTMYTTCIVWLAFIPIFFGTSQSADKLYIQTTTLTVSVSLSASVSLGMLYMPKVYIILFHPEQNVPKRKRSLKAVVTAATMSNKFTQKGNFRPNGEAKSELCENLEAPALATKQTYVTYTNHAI
structure (smiles),measurement,value
"CC(C)(C)c1cnn(-c2cc(F)c(NS(=O)(=O)c3cccc(Cl)c3Cl)c(F)c2)c1 [US12065399, Example 59]",EC50,9.28 µM
